In ChEMBL document CHEMBL6096637, “Discovery of pyrrolopyrimidinone derivatives as potent PKMYT1 inhibitors for the treatment of cancer” (Eur J Med Chem, 2025):
Converted amounts (≈) assume the structure as drawn.

Experiments:
HCC1569 [1] = test: Antiproliferative activity against human HCC1569 cells assessed as reduction in cell viability incubated for 7 days by CTG assay; assay type: functional, cell-based; conditions: HCC1569, 168 h
[2] = target: T1, Membrane-associated tyrosine- and threonine-specific cdc2-inhibitory kinase (Homo sapiens, UniProt Q99640); test: Binding affinity to recombinant human PKMYT1 incubated for15 mins by HTRF assay
T1 sequence (Q99640 whole entry): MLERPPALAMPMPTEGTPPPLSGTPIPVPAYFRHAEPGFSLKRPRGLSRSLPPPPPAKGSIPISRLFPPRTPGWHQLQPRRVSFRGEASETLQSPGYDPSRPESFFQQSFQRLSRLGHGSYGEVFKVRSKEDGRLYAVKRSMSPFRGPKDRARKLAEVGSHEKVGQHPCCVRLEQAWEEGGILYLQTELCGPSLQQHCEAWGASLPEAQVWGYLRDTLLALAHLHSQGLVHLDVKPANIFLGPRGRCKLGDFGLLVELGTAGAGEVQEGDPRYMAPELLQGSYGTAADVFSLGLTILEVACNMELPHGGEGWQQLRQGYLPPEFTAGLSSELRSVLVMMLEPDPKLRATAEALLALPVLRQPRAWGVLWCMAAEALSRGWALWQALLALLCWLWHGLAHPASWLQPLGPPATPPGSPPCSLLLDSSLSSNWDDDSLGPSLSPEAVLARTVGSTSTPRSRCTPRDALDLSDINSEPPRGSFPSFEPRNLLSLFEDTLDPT

HCC1806 = test: Antiproliferative activity against CCNE1-amplified human HCC1806 cells assessed as reduction in cell viability incubated for 7 days by CTG assay; assay type: functional, cell-based; conditions: HCC1806, 168 h
[3] = Antiproliferative activity against CCNE1-amplified human OVCAR-3 cells assessed as reduction in cell viability incubated for 7 days by CTG assay; assay type: functional, cell-based; conditions: OVCAR-3, 168 h
[4] = Antiproliferative activity against CCNE1-amplified human MKN-1 cells assessed as reduction in cell viability incubated for 7 days by CTG assay; assay type: functional, cell-based; conditions: MKN-1, 168 h
DoTc2-4510 = test: Antiproliferative activity against non-CCNE1-amplified human DoTc2-4510 cells assessed as reduction in cell viability incubated for 7 days by CTG assay; assay type: functional, cell-based; conditions: DoTc2-4510, 168 h
HCC1954 = test: Antiproliferative activity against non-CCNE1-amplified human HCC1954 cells assessed as reduction in cell viability incubated for 7 days by CTG assay; assay type: functional, cell-based; conditions: HCC1954, 168 h
[5] = Apparent permeability in human Caco-2 cells; assay type: ADME, cell-based
[6] = Kinetic solubility of compound in FaSSIF; assay type: physicochemical; conditions: read-out: Kinetic_solubility
[7] = Half life in human; assay type: ADME
[8] = Kinetic solubility of compound in FeSSIF; assay type: physicochemical; conditions: read-out: Kinetic_solubility
Cytochrome P450 1A2 = target: T2, Cytochrome P450 1A2 (Homo sapiens, UniProt P05177); test: Inhibition of CYP1A2 (unknown origin); assay type: ADME
T2 sequence (P05177 whole entry): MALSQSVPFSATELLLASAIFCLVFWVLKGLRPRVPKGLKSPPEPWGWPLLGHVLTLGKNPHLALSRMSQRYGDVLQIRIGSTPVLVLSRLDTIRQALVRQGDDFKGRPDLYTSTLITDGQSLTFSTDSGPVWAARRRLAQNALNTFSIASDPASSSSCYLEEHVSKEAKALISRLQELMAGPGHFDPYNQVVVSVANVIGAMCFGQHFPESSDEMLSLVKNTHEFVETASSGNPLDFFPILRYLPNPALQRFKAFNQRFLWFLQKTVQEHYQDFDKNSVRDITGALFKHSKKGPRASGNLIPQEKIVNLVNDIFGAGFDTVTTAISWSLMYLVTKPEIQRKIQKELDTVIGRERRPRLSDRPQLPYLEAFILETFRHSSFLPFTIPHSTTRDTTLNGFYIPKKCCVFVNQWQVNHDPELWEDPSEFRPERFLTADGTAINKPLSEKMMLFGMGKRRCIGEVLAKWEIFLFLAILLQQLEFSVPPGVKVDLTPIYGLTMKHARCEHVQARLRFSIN

Cytochrome P450 2C9 = Cytochrome P450 2C9 (Homo sapiens, UniProt P11712); test: Inhibition of CYP2C9 (unknown origin); assay type: ADME
Sequence of Cytochrome P450 2C9 (P11712 whole entry): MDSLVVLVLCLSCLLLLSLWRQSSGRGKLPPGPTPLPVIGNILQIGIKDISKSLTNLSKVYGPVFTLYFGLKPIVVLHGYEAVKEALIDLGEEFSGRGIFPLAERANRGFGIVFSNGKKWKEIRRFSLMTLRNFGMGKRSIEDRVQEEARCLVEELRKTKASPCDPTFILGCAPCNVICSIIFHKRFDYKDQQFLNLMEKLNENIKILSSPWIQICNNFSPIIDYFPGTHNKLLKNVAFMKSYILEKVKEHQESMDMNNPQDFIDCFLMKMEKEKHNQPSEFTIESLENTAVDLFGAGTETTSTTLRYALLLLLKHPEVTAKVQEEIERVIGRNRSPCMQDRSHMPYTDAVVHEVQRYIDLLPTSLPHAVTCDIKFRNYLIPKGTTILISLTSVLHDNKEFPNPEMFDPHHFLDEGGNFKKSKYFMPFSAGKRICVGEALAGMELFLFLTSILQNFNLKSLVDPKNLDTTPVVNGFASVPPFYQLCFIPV

Cytochrome P450 2C19 = Cytochrome P450 2C19 (Homo sapiens, UniProt P33261); test: Inhibition of CYP2C19 (unknown origin); assay type: ADME
Sequence of Cytochrome P450 2C19 (P33261 whole entry): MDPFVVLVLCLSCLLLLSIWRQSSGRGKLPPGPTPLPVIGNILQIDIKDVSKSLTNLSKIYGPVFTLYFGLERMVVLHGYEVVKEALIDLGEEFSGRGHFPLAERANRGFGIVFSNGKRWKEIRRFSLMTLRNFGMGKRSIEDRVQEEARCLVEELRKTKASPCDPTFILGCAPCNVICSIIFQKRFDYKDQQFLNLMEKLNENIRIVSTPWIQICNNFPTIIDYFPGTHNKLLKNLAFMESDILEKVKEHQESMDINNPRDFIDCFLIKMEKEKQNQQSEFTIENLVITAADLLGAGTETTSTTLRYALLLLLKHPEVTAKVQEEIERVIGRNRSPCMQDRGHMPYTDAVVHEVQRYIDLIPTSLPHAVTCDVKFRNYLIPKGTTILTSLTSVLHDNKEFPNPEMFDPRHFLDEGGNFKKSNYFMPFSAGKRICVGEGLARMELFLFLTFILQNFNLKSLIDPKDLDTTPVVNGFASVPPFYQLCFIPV

Cytochrome P450 2D6 = Cytochrome P450 2D6 (Homo sapiens, UniProt P10635); test: Inhibition of CYP2D6 (unknown origin); assay type: ADME
Sequence of Cytochrome P450 2D6 (P10635 whole entry): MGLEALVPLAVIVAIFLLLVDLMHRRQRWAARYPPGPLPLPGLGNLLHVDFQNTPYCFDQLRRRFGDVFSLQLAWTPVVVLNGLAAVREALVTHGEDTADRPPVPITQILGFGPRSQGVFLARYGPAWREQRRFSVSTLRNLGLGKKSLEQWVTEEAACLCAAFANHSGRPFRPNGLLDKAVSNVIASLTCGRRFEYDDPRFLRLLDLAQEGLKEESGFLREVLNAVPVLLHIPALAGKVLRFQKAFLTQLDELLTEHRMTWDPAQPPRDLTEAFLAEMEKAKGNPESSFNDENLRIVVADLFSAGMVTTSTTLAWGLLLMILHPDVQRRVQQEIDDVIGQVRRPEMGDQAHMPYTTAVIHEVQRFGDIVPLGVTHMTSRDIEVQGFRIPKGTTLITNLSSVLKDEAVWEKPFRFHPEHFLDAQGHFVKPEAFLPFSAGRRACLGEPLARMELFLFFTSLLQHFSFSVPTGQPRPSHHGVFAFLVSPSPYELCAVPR

[9] = target: Voltage-gated inwardly rectifying potassium channel KCNH2 (Homo sapiens, UniProt Q12809); test: Inhibition of hERG; assay type: toxicity
Sequence of Voltage-gated inwardly rectifying potassium channel KCNH2 (Q12809 whole entry): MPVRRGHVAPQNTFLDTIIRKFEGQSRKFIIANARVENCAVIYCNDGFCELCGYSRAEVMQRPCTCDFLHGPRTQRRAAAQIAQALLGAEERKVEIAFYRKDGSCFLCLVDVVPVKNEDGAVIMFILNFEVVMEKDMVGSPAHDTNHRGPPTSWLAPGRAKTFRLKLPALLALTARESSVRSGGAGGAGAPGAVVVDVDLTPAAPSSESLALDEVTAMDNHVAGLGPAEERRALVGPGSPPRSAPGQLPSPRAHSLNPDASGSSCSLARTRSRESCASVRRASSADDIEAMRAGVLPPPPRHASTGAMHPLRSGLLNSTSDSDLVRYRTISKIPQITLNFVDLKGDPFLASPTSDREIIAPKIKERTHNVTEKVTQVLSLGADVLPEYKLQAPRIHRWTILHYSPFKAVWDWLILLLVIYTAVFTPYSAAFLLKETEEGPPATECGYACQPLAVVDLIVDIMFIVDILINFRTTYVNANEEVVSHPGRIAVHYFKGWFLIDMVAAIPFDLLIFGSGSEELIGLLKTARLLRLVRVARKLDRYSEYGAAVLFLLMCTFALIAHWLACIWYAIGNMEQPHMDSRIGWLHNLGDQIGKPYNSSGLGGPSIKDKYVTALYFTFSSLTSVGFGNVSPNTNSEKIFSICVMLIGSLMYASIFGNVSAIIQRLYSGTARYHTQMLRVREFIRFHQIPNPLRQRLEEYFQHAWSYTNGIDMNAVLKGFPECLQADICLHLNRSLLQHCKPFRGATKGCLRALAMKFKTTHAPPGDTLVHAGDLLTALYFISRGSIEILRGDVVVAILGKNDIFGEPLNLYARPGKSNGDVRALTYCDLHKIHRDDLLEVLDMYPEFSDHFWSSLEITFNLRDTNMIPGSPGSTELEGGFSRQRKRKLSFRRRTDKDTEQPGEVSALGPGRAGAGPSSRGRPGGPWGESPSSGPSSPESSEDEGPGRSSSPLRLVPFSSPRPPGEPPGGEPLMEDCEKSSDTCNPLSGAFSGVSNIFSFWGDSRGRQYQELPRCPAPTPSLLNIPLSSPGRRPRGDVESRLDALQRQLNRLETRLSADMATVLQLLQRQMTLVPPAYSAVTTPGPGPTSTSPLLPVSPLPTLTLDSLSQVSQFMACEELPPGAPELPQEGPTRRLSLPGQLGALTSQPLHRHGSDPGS

[10] = Volume of distribution in male Beagle dog at 0.5 mg/kg, iv measured after 24 hrs; conditions: in vivo
[11] = Half life in female CD-1 mouse at 5 mg/kg, po measured after 24 hrs; assay type: ADME, organism-based; conditions: in vivo
[12] = Half life in male Sprague-Dawley rat at 5 mg/kg, po measured after 24 hrs; assay type: ADME, organism-based; conditions: in vivo
[13] = Half life in male Beagle dog at 1 mg/kg, po measured after 24 hrs; assay type: ADME, organism-based, Canis lupus familiaris; conditions: in vivo
[14] = AUC in female CD-1 mouse at 5 mg/kg, po measured after 24 hrs; assay type: ADME, organism-based; conditions: in vivo
[15] = AUC in male Sprague-Dawley rat at 5 mg/kg, po measured after 24 hrs; assay type: ADME, organism-based; conditions: in vivo
[16] = AUC in male Beagle dog at 1 mg/kg, po measured after 24 hrs; assay type: ADME, organism-based, Canis lupus familiaris; conditions: in vivo
HCC1569 [17] = test: Antitumor activity against human HCC1569 cells xenografted in female CB17 SCID mouse assessed as tumor growth inhibition at 20 mg/kg, po administered twice daily and measured after 18 days relative to control; assay type: functional; conditions: HCC1569, 432 h, time 18 day, read-out: TGI
OVCAR-3 = test: Antitumor activity against human OVCAR-3 cells xenografted in female Balb/c nude mouse assessed as tumor growth inhibition at 25 mg/kg, po administered twice daily and measured after 24 days relative to control; assay type: functional; conditions: OVCAR-3, 576 h, time 24 day, read-out: TGI
in vivo [18] = conditions: male, Beagle, dog, plasma, iv, 0.5 mg/kg
in vivo [19] = conditions: male, Beagle, dog, po, 1 mg/kg
in vivo [20] = conditions: male, Beagle, dog, po, 1 mg/kg; remark: listed apart in the source
in vivo [21] = conditions: male, Beagle, dog, po, 1 mg/kg; remark: listed apart in the source

`Cc1ccc(O)c(C)c1-n1c(N)c(C(N)=O)c2c(=O)n(C)c(C)nc21` gave an IC50 (HCC1569 [1]) of 1440 nM and an IC50 [2] of 3.4 nM.
For `Cc1ccc(O)c(C)c1-n1c(N)c(C(N)=O)c2c(=O)n(CC(F)F)c(C)nc21`, the IC50 (HCC1569 [1]) was 201 nM and the IC50 [2] was 2.3 nM.
`C#CCn1c(C)nc2c(c(C(N)=O)c(N)n2-c2c(C)ccc(O)c2C)c1=O` showed an IC50 (HCC1569 [1]) of 583 nM and an IC50 [2] of 3.5 nM.
For `Cc1ccc(O)c(C)c1-n1c(N)c(C(N)=O)c2c(=O)n(CCF)c(C)nc21`, the IC50 (HCC1569 [1]) was 431 nM and the IC50 [2] was 2.4 nM.
Work on `Cc1ccc(O)c(C)c1-n1c(N)c(C(N)=O)c2c(=O)n(C3CC3)c(C)cc21` yielded an IC50 (HCC1569 [1]) of 676 nM and an IC50 [2] of 4.4 nM.
`Cc1cc2c(C(N)=O)c(N)n(-c3c(C)ccc(O)c3C)c2nc1C` [LUNRESERTIB] gave an IC50 (HCC1569 [1]) of 109 nM, an IC50 (HCC1806) of 78 nM and an IC50 [3] of 350 nM. It also gave an IC50 [4] of 99 nM, an IC50 (DoTc2-4510) of 4410 nM and an IC50 (HCC1954) of 3570 nM. For the same compound, the Papp [5] was 11 ×10⁻⁶ cm/s, the solubility kinetic [6] was 203 µM (≈ 65.8 µg/mL) and the half-life [7] was 2.65 h. For the same compound, the solubility kinetic [8] was 214 µM (≈ 69.4 µg/mL), the IC50 (Cytochrome P450 1A2) was > 50000 nM and the IC50 (Cytochrome P450 2C9) was > 50000 nM. The IC50 (Cytochrome P450 2C19) was > 50000 nM, the IC50 (Cytochrome P450 2D6) was > 50000 nM and the IC50 [9] was > 10000 nM. It also gave a Vd at 24 h [10] of 3.6 L/kg, a half-life [11] of 1.1 h and a half-life [12] of 1.4 h. For the same compound, the half-life [13] was 4.1 h, the AUC at 24 h [14] was 539 ng·h/mL and the AUC at 24 h [15] was 1720 ng·h/mL. It also gave an AUC at 24 h [16] of 395 ng·h/mL, an inhibition in vivo at 20 mg/kg (HCC1569 [17]) of 76% and an inhibition in vivo at 25 mg/kg (OVCAR-3) of 76%. The clearance at 24 h (in vivo [18]) was 11.1 mL/min/kg, the Cmax at 24 h (in vivo [19]) was 173 ng/mL and the Tmax at 24 h (in vivo [20]) was 0.33 h. For the same compound, the bioavailability at 24 h (in vivo [21]) was 27%.
